Experimental data as given in patent publication US20250066345A1, “COMPOSITIONS AND METHODS OF USE TO TREAT 12-LIPOXYGENASE (12-LOX) MEDIATED DISEASES” (VERALOX THERAPEUTICS, priority 2021, published 2025).

How the values were obtained:
12-LOX = 12-LOX (Homo sapiens (Human), UniProt P18054); test: 12-LOX IC50 determination, UV-Vis assay with arachidonic acid substrate; format: biochemical; settings: 30 nM 12-LOX, 50 μM AA, absorbance of 12-HPETE at 234 nm
Method: (§1) The compounds were evaluated for inhibition of 12-LOX, as well as selectivity by measuring inhibition against 15-LOX for some compounds, using a UV-Vis assay. Arachidonic acid (AA) was used as a substrate for 12-LOX and 15-LOX. ML355 was used as the control inhibitor for 12-LOX. ML351 (5-(Methylamino)-2-(1-naphthalenyl)-4-oxazolecarbonitrile) was used as the control inhibitor for 15-LOX.
(§2) Reaction buffers used for the lipoxygenase assay were as follows: 25 mM HEPES (pH 7.5), with 0.01% Triton X-100. 1 mM 12-HPETE or 1 mM 15-HPETE stock solution was prepared in 25 mM HEPES with 0.01% Triton X-100.
The standard curve of 12-HPETE was made by serial dilution of 0, 6.25, 12.5, 25, 50, 75 and 100 μM, and the final reaction volume in 96 Well Clear Flat Bottom UV-Transparent Microplate is 100 μL. The absorbance of the 12-HPETE at each concentration was measured at 234 nm.
(§3) IC50 values were obtained by determining the % inhibition at various inhibitor concentrations. The final concentrations of the control inhibitors and test compounds in the IC50 determination assay are 0, 0.03, 0.1, 0.3, 1, 3, 10 and 20 μM. The final concentration of DMSO in the assay is 0.05%.
12-LOX IC50 determination. The 12-LOX enzyme and AA were diluted in the HEPES buffer to 120 nM and 200 μM, respectively. Pre-incubation 50 μL of indicated test compounds and 25 μL 120 nM enzyme at room temperature for 5 min. The reaction is started by adding 25 μL 200 μM AA. After a short spin (1000 rpm, 15 s), incubate the reaction system for 5 min. The blank control was set by adding 25 μL HEPES to 50 μL of control inhibitor compound (MHL355) and 25 μL 200 μM AA. The final concentrations of 12-LOX enzyme and AA were 30 nM and 50 μM, respectively. The absorbance of the 12-HPETE at 234 nm was measured.
(§4) The IC50 value was calculated by using GraphPad Prism 8.0.2.
(§5) The IC50 values are calculated with remaining activity (%) and logarithm of inhibitor concentrations.
(§6) Remaining Activity (%)=OD value inhibitor/OD value vehicle×100

15-LOX = 15-LOX (Homo sapiens (Human), UniProt P16050); test: 15-LOX IC50 determination, UV-Vis assay with arachidonic acid substrate (selectivity); format: biochemical; settings: selectivity for 12-LOX over 15-LOX; 120 nM 15-LOX, AA substrate
Method: as §1, §2
The standard curve of 15-HPETE was made by serial dilution of 0, 3.125, 6.25, 12.5, 25, 50 and 100 μM, and the final reaction volume in 96 Well Clear Flat Bottom UV-Transparent Microplate is 100 μL. The absorbance of the […] at each concentration was measured at 234 nm.
as §3
15-LOX IC50 determination. The 15-LOX enzyme and AA were diluted in the HEPES buffer to 480 nM and 200 μM, respectively. Pre-incubation 50 μL of indicated test compounds and 25 μL 480 nM enzyme at room temperature for 5 min. The reaction is started by adding 25 μL 200 μM AA. After a short spin (1000 rpm, 15 s), incubate the reaction system for 3 min. The blank control was set by adding 25 μL HEPES to 50 μL of control inhibitor compound (MHL355) and 25 μL 200 μM AA. The final concentrations of 15-LOX enzyme and AA were 120 nM and 50 µM, respectively. The absorbance of the 15-HPETE at 234 nm was measured. The assay was performed in duplicate.
as §4, §5, §6

Chain of 12-LOX (P18054 whole entry): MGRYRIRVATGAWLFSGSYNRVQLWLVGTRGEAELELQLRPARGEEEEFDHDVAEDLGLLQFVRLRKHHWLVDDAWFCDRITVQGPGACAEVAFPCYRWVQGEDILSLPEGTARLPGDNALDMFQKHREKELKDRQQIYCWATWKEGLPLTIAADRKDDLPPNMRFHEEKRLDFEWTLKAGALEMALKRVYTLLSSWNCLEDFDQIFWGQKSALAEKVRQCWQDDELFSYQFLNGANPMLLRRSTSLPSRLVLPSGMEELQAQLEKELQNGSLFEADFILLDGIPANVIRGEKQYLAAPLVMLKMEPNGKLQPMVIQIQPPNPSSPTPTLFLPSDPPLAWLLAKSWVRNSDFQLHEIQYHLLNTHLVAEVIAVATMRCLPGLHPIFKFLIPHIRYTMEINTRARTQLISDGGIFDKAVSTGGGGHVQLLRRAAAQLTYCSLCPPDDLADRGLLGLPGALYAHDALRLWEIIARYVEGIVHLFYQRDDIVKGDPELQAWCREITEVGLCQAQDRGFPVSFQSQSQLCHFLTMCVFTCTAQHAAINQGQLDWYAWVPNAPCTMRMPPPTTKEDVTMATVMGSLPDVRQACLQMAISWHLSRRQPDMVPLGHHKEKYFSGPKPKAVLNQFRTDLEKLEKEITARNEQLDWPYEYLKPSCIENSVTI
Chain of 15-LOX (P16050 whole entry): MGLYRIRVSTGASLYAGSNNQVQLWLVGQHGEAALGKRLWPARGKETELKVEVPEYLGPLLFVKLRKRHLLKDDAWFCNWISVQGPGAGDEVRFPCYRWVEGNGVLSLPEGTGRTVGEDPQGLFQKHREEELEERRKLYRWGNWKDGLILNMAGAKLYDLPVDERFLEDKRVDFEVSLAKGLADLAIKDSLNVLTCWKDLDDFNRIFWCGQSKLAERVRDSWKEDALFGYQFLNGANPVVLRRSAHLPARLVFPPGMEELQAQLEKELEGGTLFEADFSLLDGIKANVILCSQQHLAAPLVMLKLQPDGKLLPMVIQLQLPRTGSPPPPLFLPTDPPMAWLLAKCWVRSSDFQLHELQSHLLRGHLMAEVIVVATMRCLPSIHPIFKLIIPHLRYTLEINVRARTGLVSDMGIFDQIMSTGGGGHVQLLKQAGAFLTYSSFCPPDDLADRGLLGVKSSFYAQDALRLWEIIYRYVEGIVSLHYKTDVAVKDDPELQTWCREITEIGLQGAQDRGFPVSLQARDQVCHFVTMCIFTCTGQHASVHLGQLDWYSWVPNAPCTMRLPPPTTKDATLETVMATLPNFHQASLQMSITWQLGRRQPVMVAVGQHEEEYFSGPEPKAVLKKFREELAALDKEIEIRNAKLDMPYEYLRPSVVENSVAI

Structure (SMILES)	IC50 (12-LOX) [nM]	Selectivity over 15-LOX (15-LOX)
COc1cccc(CNc2ccc(S(=O)(=O)Nc3nc(-c4ccc(C(F)(F)F)c(F)c4)cs3)nc2)c1O [Compound I-12]	< 250	>50-fold
COc1cccc(CNc2ccc(S(=O)(=O)Nc3nc(-c4ccc(C(C)C)cc4)c(F)s3)nc2)c1O [Compound I-3]	< 250	>20-fold
COc1cccc(CNc2cnc(S(=O)(=O)Nc3nc(-c4ccc(Cl)c(F)c4)c(F)s3)c(C)c2)c1O [Compound I-23]	< 250	>50-fold
COc1cccc(CN(C)c2cnc(S(=O)(=O)Nc3nc(-c4ccc(F)c(F)c4)cs3)c(C)c2)c1O [Compound I-19]	> 1000	
COc1cccc(CNc2cnc(S(=O)(=O)Nc3nc(-c4ccc(F)c(Cl)c4)c(F)s3)c(-c3ccccc3)c2)c1O [Compound I-42]	< 250	>50-fold
[2H]C([2H])([2H])Oc1cccc(CNc2cnc(S(=O)(=O)Nc3nc(-c4ccc(Cl)c(F)c4)c(F)s3)c(C([2H])([2H])[2H])c2)c1O [Compound I-47]	> 1000	<20-fold
COc1cccc(CNc2cnc(S(=O)(=O)Nc3nc(-c4ccc(F)c(Cl)c4)cs3)c(C)c2)c1O [Compound I-41]	< 250	>50-fold
COc1cccc(CN(C)c2ccc(S(=O)(=O)Nc3nc(-c4ccc(F)c(F)c4)c(F)s3)nc2)c1O [Compound I-11]	250 to 1000	>20-fold
[2H]C([2H])([2H])Oc1cccc(CNc2cnc(S(=O)(=O)Nc3nc(-c4ccc(F)c(F)c4)c(F)s3)c(C)c2)c1O [Compound I-50]	250 to 1000	>50-fold
COc1cccc(CNc2cnc(S(=O)(=O)Nc3nc(-c4ccc(F)c(Cl)c4)c(F)s3)c(C)c2)c1O [Compound I-16]	< 250	>50-fold
COc1cccc(CNc2ccc(S(=O)(=O)Nc3nc(-c4ccc(F)c(Cl)c4)c(F)s3)nc2C)c1O [Compound I-14]	250 to 1000	~10-fold
COc1cccc(CNc2ccc(S(=O)(=O)Nc3nc(-c4ccc(C(C)C)cc4)cs3)nc2)c1O [Compound I-4]	< 250	>50-fold
COc1cccc(CNc2ccc(S(=O)(=O)Nc3nc(-c4ccc(F)c(Cl)c4)c(CO)s3)nc2)c1O [Compound I-24]	< 250	>50-fold
[2H]C([2H])([2H])Oc1cccc(CNc2ccc(S(=O)(=O)Nc3nc(-c4ccc(Cl)c(F)c4)c(F)s3)nc2)c1O [Compound I-49]	< 250	>50-fold
CCOc1cccc(CNc2cnc(S(=O)(=O)Nc3nc(-c4ccc(F)c(Cl)c4)c(F)s3)c(C)c2)c1O [Compound I-46]	> 1000	<20-fold
COc1cccc(CNc2ccc(S(=O)(=O)Nc3nc4ccccc4s3)nc2)c1O [Compound I-10]	> 1000	
COc1cccc(CNc2cnc(S(=O)(=O)Nc3nc(-c4ccc(F)c(Cl)c4)c(F)s3)c(C(F)(F)F)c2)c1O [Compound I-17]	< 250	>20-fold
COc1cccc(CNc2ccc(S(=O)(=O)Nc3nc(-c4ccc(Cl)c(F)c4)c(F)s3)nc2)c1O [Compound I-2]	< 250	>50-fold

Structure (SMILES)	IC50 (12-LOX) [nM]	Selectivity over 15-LOX (15-LOX)
COc1cccc(CNc2cnc(S(=O)(=O)Nc3nc(-c4ccc(F)c(F)c4)cs3)c(C)c2)c1O [Compound I-39]	< 250	>50-fold
COc1cccc(CNc2ccc(S(=O)(=O)Nc3nc(-c4ccc(F)c(F)c4)cs3)nc2)c1O [Compound I-7]	< 250	>50-fold
[2H]C([2H])([2H])Oc1cccc(CNc2cnc(S(=O)(=O)Nc3nc(-c4ccc(Cl)c(F)c4)c(F)s3)c(C)c2)c1O [Compound I-48]	< 250	>50-fold
[2H]C([2H])([2H])Oc1cccc(CNc2cnc(S(=O)(=O)Nc3nc(-c4ccc(F)c(Cl)c4)c(F)s3)c(C)c2)c1O [Compound I-51]	< 250	>50-fold
COc1cccc(CNc2ccc(S(=O)(=O)Nc3nc(-c4ccc(F)c(F)c4)c(F)s3)nc2)c1O [Compound I-6]	< 250	>50-fold
COc1cccc(CNc2cnc(S(=O)(=O)Nc3nc(-c4ccc(F)c(F)c4)c(F)s3)c(C)c2)c1O [Compound I-18, N-(4-(3,4-difluorophenyl)-5-fluorothiazol-2-yl)-5-((2-hydroxy-3-methoxybenzyl)amino)-3-methylpyridine-2-sulfonamide]	< 250	>50-fold
COc1cccc(CNc2ccc(S(=O)(=O)Nc3nc(-c4ccc(Cl)c(F)c4)cs3)nc2)c1O [Compound I-8, N-(4-(4-chloro-3-fluorophenyl)thiazol-2-yl)-5-((2-hydroxy-3-methoxybenzyl)amino)pyridine-2-sulfonamide]	< 250	>50-fold
COc1cccc(CNc2ccc(S(=O)(=O)Nc3nc(-c4ccc(C(F)(F)F)c(F)c4)c(F)s3)nc2)c1O [Compound I-25]	< 250	>50-fold
COc1cccc(CNc2ccc(S(=O)(=O)Nc3nc(-c4ccc(F)c(Cl)c4)cs3)nc2)c1O [Compound I-9]	250 to 1000	>50-fold
Cc1cc(NCc2cccc(OC(F)(F)F)c2O)cnc1S(=O)(=O)Nc1nc(-c2ccc(F)c(Cl)c2)c(F)s1 [Compound I-45]	> 1000	<20-fold
COc1cccc(CNc2cnc(S(=O)(=O)Nc3nc(-c4ccc(F)c(Cl)c4)c(F)s3)cc2C)c1O [Compound I-15]	> 1000	<10-fold
COc1cccc(CNc2ccc(S(=O)(=O)Nc3nc4c(ccc5ccccc54)s3)nc2)c1O [Compound I-13]	< 250	>50-fold
COc1cccc(CNc2ccc(S(=O)(=O)Nc3nc(-c4ccc(F)c(Cl)c4)c(F)s3)nc2)c1O [Compound I-1]	< 250	>50-fold
COc1cccc(CNc2cnc(S(=O)(=O)Nc3nc(-c4ccc(Cl)c(F)c4)cs3)c(C)c2)c1O [Compound I-40]	< 250	>50-fold
COc1cccc(CNc2ccc(S(=O)(=O)Nc3nc(-c4ccc(C5CC5)cc4)cs3)nc2)c1O [Compound I-5]	< 250	>50-fold
COc1cccc(CNc2cnc(S(=O)(=O)Nc3nc(-c4ccc(F)c(F)c4)c(F)s3)c(C(F)(F)F)c2)c1O [Compound I-22]	> 1000	<10-fold
COc1cccc(CNc2cnc(S(=O)(=O)Nc3nc(-c4ccc(F)c(Cl)c4)c(F)s3)c(C3CC3)c2)c1O [Compound I-43]	> 1000	<20-fold
